From publication PMC6080930 (The Journal of Cell Biology, 2018)

Molecular target: adenylyl cyclase A (ACA); ACA-YFP (Dictyostelium discoideum, UniProt Q03100)
Details: labelled compound; 2 mM MnSO4, 2 mM MgSO4, Tris pH 8.0, 22°C, 10 min; lysed EVs

Sequence of adenylyl cyclase A (ACA); ACA-YFP (Q03100 whole entry): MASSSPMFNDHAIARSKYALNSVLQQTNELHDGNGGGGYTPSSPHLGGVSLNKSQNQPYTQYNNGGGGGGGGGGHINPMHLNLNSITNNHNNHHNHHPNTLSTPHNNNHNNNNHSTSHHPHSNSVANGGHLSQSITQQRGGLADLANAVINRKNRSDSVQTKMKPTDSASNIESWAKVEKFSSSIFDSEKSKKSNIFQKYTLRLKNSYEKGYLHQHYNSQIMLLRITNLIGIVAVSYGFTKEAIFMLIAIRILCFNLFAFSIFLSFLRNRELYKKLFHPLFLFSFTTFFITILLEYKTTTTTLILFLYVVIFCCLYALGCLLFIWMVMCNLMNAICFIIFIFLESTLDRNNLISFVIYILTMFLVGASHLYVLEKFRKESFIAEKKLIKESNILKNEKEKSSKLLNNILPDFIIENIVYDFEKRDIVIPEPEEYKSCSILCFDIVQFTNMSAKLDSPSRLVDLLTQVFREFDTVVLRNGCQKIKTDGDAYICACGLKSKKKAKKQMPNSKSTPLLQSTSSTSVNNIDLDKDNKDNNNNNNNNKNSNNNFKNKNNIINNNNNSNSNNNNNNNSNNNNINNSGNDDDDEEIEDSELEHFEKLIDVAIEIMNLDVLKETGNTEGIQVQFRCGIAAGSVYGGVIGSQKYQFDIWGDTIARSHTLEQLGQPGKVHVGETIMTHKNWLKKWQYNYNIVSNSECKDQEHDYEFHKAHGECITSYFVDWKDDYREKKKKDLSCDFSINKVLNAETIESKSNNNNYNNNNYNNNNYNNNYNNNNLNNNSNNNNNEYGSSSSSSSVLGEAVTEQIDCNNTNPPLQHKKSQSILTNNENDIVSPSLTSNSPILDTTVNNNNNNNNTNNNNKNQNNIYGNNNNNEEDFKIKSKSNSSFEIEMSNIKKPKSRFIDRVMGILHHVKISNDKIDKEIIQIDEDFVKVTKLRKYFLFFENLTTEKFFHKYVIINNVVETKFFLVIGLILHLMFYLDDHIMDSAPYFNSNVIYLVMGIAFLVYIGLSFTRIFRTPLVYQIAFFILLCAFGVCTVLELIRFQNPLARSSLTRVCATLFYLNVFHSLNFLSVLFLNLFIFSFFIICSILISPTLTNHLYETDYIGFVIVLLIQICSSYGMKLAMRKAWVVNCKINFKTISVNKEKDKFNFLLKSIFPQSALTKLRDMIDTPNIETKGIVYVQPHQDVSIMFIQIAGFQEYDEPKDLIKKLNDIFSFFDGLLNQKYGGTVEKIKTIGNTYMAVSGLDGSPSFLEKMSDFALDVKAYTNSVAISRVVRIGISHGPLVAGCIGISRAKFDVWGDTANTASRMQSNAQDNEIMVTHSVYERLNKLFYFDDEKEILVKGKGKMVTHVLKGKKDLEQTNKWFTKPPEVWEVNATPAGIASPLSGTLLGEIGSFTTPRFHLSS

SMILES: Nc1ncnc2c1ncn2[C@@H]1O[C@H](COP(=O)(O)OP(=O)(O)OP(=O)(O)O)[C@@H](O)[C@H]1O [ATP]
- conversion of [32P]ATP to [32P]cAMP, Dowex/alumina columns: MnSO4 induced an increase in adenylyl cyclase activity in ACA-YFP/aca^− EVs
